In patent US6982257B1, “Vitamin D3 derivative and its production method” (Teijin Limited, priority 1997, dated 2006):

Key:
[1] = biological target: T1, bovine thymus 1α,25-dihydroxyvitamin D3 receptor (VDR) (Bos taurus, UniProt Q28037); details: relative intensity ratio based on 100 for 1α,25-dihydroxyvitamin D3, from the concentration inhibiting [3H]1α,25-dihydroxyvitamin D3 (0.1 nM) binding by 50%
T1 sequence (Q28037 1-426): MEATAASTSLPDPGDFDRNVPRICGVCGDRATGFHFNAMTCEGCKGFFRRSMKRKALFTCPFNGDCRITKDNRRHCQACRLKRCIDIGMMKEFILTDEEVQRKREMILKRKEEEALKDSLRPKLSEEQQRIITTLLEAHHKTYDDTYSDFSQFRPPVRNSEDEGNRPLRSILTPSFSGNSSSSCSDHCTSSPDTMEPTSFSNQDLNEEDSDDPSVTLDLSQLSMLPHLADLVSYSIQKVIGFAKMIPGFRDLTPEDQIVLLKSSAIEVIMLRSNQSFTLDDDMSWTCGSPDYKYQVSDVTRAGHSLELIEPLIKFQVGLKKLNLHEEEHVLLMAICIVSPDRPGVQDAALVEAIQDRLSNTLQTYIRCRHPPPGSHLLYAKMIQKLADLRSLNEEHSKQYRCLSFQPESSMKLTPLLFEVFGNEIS
Description: The content (about 25 mg) of an ampule of a bovine thymus vitamin D receptor kit made by Yamasa Shoyu Ltd. was dissolved in 55 ml of a 0.05 M phosphoric acid-0.5 M potassium buffer solution (pH 7.4). Fifty μl of the ethanol solution of a compound to be tested and 500 μl of the receptor solution were pre-incubated at room temperature for 1 hr. […] To 500 μl of the supernatant, 9.5 ml of a liquid scintillation cocktail (ACS-II) was added, and the radioactivity of the resultant mixture was measured by a liquid scintillation counter.

[2] = test system: HL-60 cell; test: Differentiation induction of HL-60 cell, nitroblue tetrazolium (NBT) reduction activity; type: cell-based; details: HL-60, 4 days culture
Text: Activities of Objective Compounds of the Present Invention on Differentiation Induction effect of HL-60 Cell
HL-60 cell was purchased from a cell bank (Japanese Cancer Research Resource Bank, Cell Number: JCRB 0085). The cell was stored as a frozen storage stock for preventing the change of cell characteristics attributable to successive cultivation. Before the initiation of experiments, the cell was defrosted, and successive cultivation was started for using the cell in the experiments. The cell which had been treated by successive culturing for about one to six months was used for the experiments. The successive culturing was carried out by centrifugally recovering cells from cultivation mixture in suspension culture, and diluting the collected cell concentrate in a fresh culture medium at a ratio of about 1/100 (1−2×10^5 cells/ml). As the culture medium, an RPMI-1640 medium containing 10% fetal bovine serum was used. Successively cultured cells were centrifugally collected, and they were dispersed in a culture medium at the concentration of 2×10^4 cells/ml. The dispersion was seeded into a 24-well culture petri dish at 1 ml/well. An ethanol solution (1×10^−9M to 1×10^−6M) of a compound of the present invention was added to this system at 1 μl/well. Further, regarding 1 α,25(OH)2D3, an ethanol solution of 1×10^−7 M to 1×10^−4 M was added at 1 μl/well, and for the control, ethanol was added at 1 μl/well. After culturing at 37° C. for 4 days under a 5% CO2 atmosphere, the cells were centrifugally collected. Nitroblue tetrazolium (NBT) reduction activity was determined as follows. That is, the collected cells were suspended in a fresh culture medium, and NBT and 12-O-tetradecanoylphorbol-13-acetate were added to the resultant suspension so that their concentrations became 0.1% and 100 nM, respectively. After the mixed suspension was incubated at 37° C. for 25 min, a cytospin sample was prepared. After air drying, it was stained with Kernechtrot, and the ratio of the positive cells of NBT reduction activity was determined under an optical microscope.
Activities of Compounds of the Present Invention on Nitroblue Tetrazolium

C=C1/C(=C\C=C2/CCC[C@]3(C)[C@@H]([C@@H](C)CCCC(C)(C)O)CC[C@@H]23)C[C@@H](O)[C@@H](C)[C@@H]1O [Compound (68), (20S)-1α,25-dihydroxy-2β-methyl-3β-vitamin D3]
Binding Affinity for VDR [1]: 160
Positive cells (%) of nitroblue tetrazolium reduction activity ([2]; concentration 10^−9 M): 95.7 ± 1.0%
Positive cells (%) of nitroblue tetrazolium reduction activity ([2]; concentration 10^−10 M): 57.7 ± 5.0%
Positive cells (%) of nitroblue tetrazolium reduction activity ([2]; concentration 10^−11 M): 2.8 ± 0.7%
Positive cells (%) of nitroblue tetrazolium reduction activity ([2]; concentration 10^−12 M): 1.7 ± 0.3%

C=C1/C(=C\C=C2/CCC[C@]3(C)[C@@H]([C@@H](C)CCCC(C)(C)O)CC[C@@H]23)C[C@H](O)[C@@H](C)[C@H]1O [Compound (71), (20S)-1β,25-dihydroxy-2β-methyl-3α-vitamin D3]
Binding Affinity for VDR [1]: 7
Positive cells (%) of nitroblue tetrazolium reduction activity ([2]; concentration 10^−9 M): 40.5 ± 1.8%
Positive cells (%) of nitroblue tetrazolium reduction activity ([2]; concentration 10^−10 M): 2.0 ± 1.0%
Positive cells (%) of nitroblue tetrazolium reduction activity ([2]; concentration 10^−11 M): 1.8 ± 0.8%
Positive cells (%) of nitroblue tetrazolium reduction activity ([2]; concentration 10^−12 M): 1.5 ± 0.8%

C=C1C(=CC=C2CCCC3(C)C2CCC3C(C)CCCC(C)(C)O)CC(O)C(C)C1O [Compound (7), (20R)-1β,25-dihydroxy-2α-methyl-3α vitamin D3, reference compound]
Binding Affinity for VDR [1]: 0.06

C=C1C(=CC=C2CCCC3(C)C2CCC3C(C)CCCC(C)(C)O)CC(O)C(C)C1O [Compound (4), (20R)-1α,25-dihydroxy-2α-methyl-3β vitamin D3, reference compound]
Binding Affinity for VDR [1]: 400

C=C1/C(=C\C=C2/CCC[C@]3(C)[C@@H]([C@@H](C)CCCC(C)(C)O)CC[C@@H]23)C[C@@H](O)[C@@H](C)[C@H]1O [Compound (69), (20S)-1β,25-dihydroxy-2β-methyl-3β-vitamin D3]
Binding Affinity for VDR [1]: 0.03

C=C1C(=CC=C2CCCC3(C)C2CCC3C(C)CCCC(C)(C)O)CC(O)C(C)C1O [Compound (3), (20R)-1β,25-dihydroxy-2β-methyl-3β vitamin D3, reference compound]
Binding Affinity for VDR [1]: 0.8

C=C1C(=CC=C2CCCC3(C)C2CCC3C(C)CCCC(C)(C)O)CC(O)C(C)C1O [Compound (6), (20R)-1α,25-dihydroxy-2α-methyl-3α vitamin D3, reference compound]
Binding Affinity for VDR [1]: 4

C=C1C(=CC=C2CCCC3(C)C2CCC3C(C)CCCC(C)(C)O)CC(O)C(C)C1O [Compound (72), (20S)-1α,25-dihydroxy-2α-methyl-3β-vitamin D3]
Binding Affinity for VDR [1]: 1200
Positive cells (%) of nitroblue tetrazolium reduction activity ([2]; concentration 10^−9 M): 96.2 ± 2.0%
Positive cells (%) of nitroblue tetrazolium reduction activity ([2]; concentration 10^−10 M): 95.7 ± 2.3%
Positive cells (%) of nitroblue tetrazolium reduction activity ([2]; concentration 10^−11 M): 94.4 ± 1.8%
Positive cells (%) of nitroblue tetrazolium reduction activity ([2]; concentration 10^−12 M): 3.7 ± 0.8%

C=C1C(=CC=C2CCCC3(C)C2CCC3C(C)CCCC(C)(C)O)CC(O)C(C)C1O [Compound (2), (20R)-1α,25-dihydroxy-2β-methyl-3α vitamin D3, reference compound]
Binding Affinity for VDR [1]: 0.3

C=C1C(=CC=C2CCCC3(C)C2CCC3C(C)CCCC(C)(C)O)CC(O)C(C)C1O [Compound (65), (20R)-1α,25-dihydroxy-2β-methyl-3β vitamin D3, reference compound]
Binding Affinity for VDR [1]: 13

C=C1/C(=C\C=C2/CCC[C@]3(C)[C@@H]([C@@H](C)CCCC(C)(C)O)CC[C@@H]23)C[C@H](O)[C@H](C)[C@H]1O [Compound (75), (20S)-1β,25-dihydroxy-2α-methyl-3α-vitamin D3]
Binding Affinity for VDR [1]: 0.03

C=C1/C(=C\C=C2/CCC[C@]3(C)[C@@H]([C@@H](C)CCCC(C)(C)O)CC[C@@H]23)C[C@H](O)[C@H](C)[C@@H]1O [Compound (74), (20S)-1α,25-dihydroxy-2α-methyl-3α-vitamin D3]
Binding Affinity for VDR [1]: 17
Positive cells (%) of nitroblue tetrazolium reduction activity ([2]; concentration 10^−9 M): 96.4 ± 1.4%
Positive cells (%) of nitroblue tetrazolium reduction activity ([2]; concentration 10^−10 M): 16.7 ± 1.1%
Positive cells (%) of nitroblue tetrazolium reduction activity ([2]; concentration 10^−11 M): 17.0 ± 2.3%
Positive cells (%) of nitroblue tetrazolium reduction activity ([2]; concentration 10^−12 M): 6.4 ± 1.1%

C=C1C(=CC=C2CCCC3(C)C2CCC3C(C)CCCC(C)(C)O)CC(O)C(C)C1O [Compound (5), (20R)-1β,25-dihydroxy-2α-methyl-3β vitamin D3, reference compound]
Binding Affinity for VDR [1]: 0.05

C=C1/C(=C\C=C2/CCC[C@]3(C)[C@@H]([C@@H](C)CCCC(C)(C)O)CC[C@@H]23)C[C@@H](O)[C@H](C)[C@H]1O [Compound (73), (20S)-1β,25-dihydroxy-2α-methyl-3β-vitamin D3]
Binding Affinity for VDR [1]: 0.05

C=C1C(=CC=C2CCCC3(C)C2CCC3C(C)CCCC(C)(C)O)CC(O)C(C)C1O [Compound (1), (20R)-1β,25-dihydroxy-2β-methyl-3β vitamin D3, reference compound]
Binding Affinity for VDR [1]: 0.05

C=C1/C(=C\C=C2/CCC[C@]3(C)[C@@H]([C@H](C)CCCC(C)(C)O)CC[C@@H]23)C[C@@H](O)C[C@@H]1O [1α,25-(OH)2VD3, 1α,25-dihydroxyvitamin D3, reference compound]
Positive cells (%) of nitroblue tetrazolium reduction activity ([2]; concentration 10^−7 M): 96.5 ± 1.0%
Positive cells (%) of nitroblue tetrazolium reduction activity ([2]; concentration 10^−8 M): 86.1 ± 2.6%
Positive cells (%) of nitroblue tetrazolium reduction activity ([2]; concentration 10^−9 M): 36.8 ± 2.0%
Positive cells (%) of nitroblue tetrazolium reduction activity ([2]; concentration 10^−10 M): 4.3 ± 1.2%

C=C1/C(=C\C=C2/CCC[C@]3(C)[C@@H]([C@@H](C)CCCC(C)(C)O)CC[C@@H]23)C[C@H](O)[C@@H](C)[C@@H]1O [Compound (70), (20S)-1α,25-dihydroxy-2β-methyl-3α-vitamin D3]
Binding Affinity for VDR [1]: 0.08
